Results taken from PubChem BioAssay AID248 (DTP/NCI, 2004).
Where “and” joins values, the source holds several entries; their conditions need not be identical. Equal entries are not always repeated. Toxic doses and inconclusive results are not listed.

Tested on: L1210 leukemia ip in BDF1 mice, survival T/C
Experiment: NCI In Vivo Anticancer Drug Screen. Data for tumor model L1210 Leukemia (intraperitoneal) in B6D2F1 (BDF1) mice
Conditions: endpoint: mean survival time, higher = longer survival
In short: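 Value reflects the ratio of survival in compound-treated mice to survival in vehicle-treated controls, with both groups carrying the same transplanted tumor.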

[1] = dose: 100.0 mg/kg/injection, schedule: Q01DX001 (ip), vehicle: other
[2] = dose: 200.0 mg/kg/injection, schedule: Q01DX001 (ip), vehicle: other
[3] = dose: 400.0 mg/kg/injection, schedule: Q01DX001 (ip), vehicle: other
[4] = dose: 100.0 mg/kg/injection, schedule: Q01DX009 (ip), vehicle: saline
[5] = dose: 100.0 mg/kg/injection, schedule: Q04DX003 (ip), vehicle: Klucel (hydroxypropylcellulose) (HPC)
[6] = dose: 200.0 mg/kg/injection, schedule: Q04DX003 (ip), vehicle: Klucel (hydroxypropylcellulose) (HPC)
[7] = dose: 400.0 mg/kg/injection, schedule: Q04DX003 (ip), vehicle: Klucel (hydroxypropylcellulose) (HPC)
[8] = dose: 100.0 mg/kg/injection, schedule: Q01DX009 (ip), vehicle: Klucel (hydroxypropylcellulose) (HPC)
[9] = dose: 200.0 mg/kg/injection, schedule: Q01DX009 (ip), vehicle: Klucel (hydroxypropylcellulose) (HPC)

C(CC1CO1)C1CO1 (stereo unspecified) was tested, and the T/C (dose: 7.0 mg/kg/injection, schedule: Q01DX009 (ip), vehicle: acetone) was 197 % of control, the T/C (dose: 9.0 mg/kg/injection, schedule: Q01DX Z (ip), vehicle: methylcellulose (MC)) was 118 % of control and the T/C (dose: 9.2 mg/kg/injection, schedule: Q01DX009 (ip), vehicle: saline) was 102 % of control and 115 % of control. The T/C (dose: 10.6 mg/kg/injection, schedule: Q01DX001 (ip), vehicle: acetone) was 102 % of control, the T/C (dose: 10.6 mg/kg/injection, schedule: Q01DX009 (ip), vehicle: acetone) was 115 % of control and the T/C (dose: 10.6 mg/kg/injection, schedule: Q04DX003 (ip), vehicle: acetone) was 112 % of control. The T/C (dose: 10.6 mg/kg/injection, schedule: Q08DX002 (ip), vehicle: acetone) was 102 % of control, the T/C (dose: 14.0 mg/kg/injection, schedule: Q01DX009 (ip), vehicle: acetone) was 152 % of control and the T/C (dose: 14.0 mg/kg/injection, schedule: Q01DX009 (ip), vehicle: saline) was 102 % of control and 105 % of control. For the same molecule, the T/C (dose: 16.0 mg/kg/injection, schedule: Q01DX009 (ip), vehicle: acetone) was 115 % of control, the T/C (dose: 16.0 mg/kg/injection, schedule: Q04DX003 (ip), vehicle: acetone) was 115 % of control and the T/C (dose: 16.0 mg/kg/injection, schedule: Q08DX002 (ip), vehicle: acetone) was 112 % of control. For the same molecule, the T/C (dose: 18.0 mg/kg/injection, schedule: Q01DX Z (ip), vehicle: methylcellulose (MC)) was 122 % of control and 124 % of control, the T/C (dose: 18.8 mg/kg/injection, schedule: Q01DX009 (ip), vehicle: saline) was 107 % of control and the T/C (dose: 21.0 mg/kg/injection, schedule: Q01DX009 (ip), vehicle: saline) was 109 % of control and 116 % of control. The T/C (dose: 22.0 mg/kg/injection, schedule: Q01DX001 (ip), vehicle: saline) was 109 % of control, the T/C (dose: 24.0 mg/kg/injection, schedule: Q01DX001 (ip), vehicle: acetone) was 103 % of control and the T/C (dose: 24.0 mg/kg/injection, schedule: Q04DX003 (ip), vehicle: acetone) was 124 % of control. For the same molecule, the T/C (dose: 24.0 mg/kg/injection, schedule: Q08DX002 (ip), vehicle: acetone) was 105 % of control, the T/C (dose: 27.0 mg/kg/injection, schedule: Q01DX Z (ip), vehicle: methylcellulose (MC)) was 110 % of control and 116 % of control and the T/C (dose: 33.0 mg/kg/injection, schedule: Q01DX001 (ip), vehicle: saline) was 107 % of control. The T/C (dose: 36.0 mg/kg/injection, schedule: Q01DX001 (ip), vehicle: acetone) was 110 % of control, the T/C (dose: 36.0 mg/kg/injection, schedule: Q04DX003 (ip), vehicle: acetone) was 124 % of control and the T/C (dose: 36.0 mg/kg/injection, schedule: Q08DX002 (ip), vehicle: acetone) was 117 % of control. The T/C (dose: 37.5 mg/kg/injection, schedule: Q01DX009 (ip), vehicle: saline) was 150 % of control, the T/C (dose: 37.5 mg/kg/injection, schedule: Q04DX003 (ip), vehicle: saline sonified) was 113 % of control and the T/C (dose: 40.0 mg/kg/injection, schedule: Q01DX Z (ip), vehicle: methylcellulose (MC)) was 108 % of control and 116 % of control. For the same molecule, the T/C (dose: 50.0 mg/kg/injection, schedule: Q01DX001 (ip), vehicle: saline) was 117 % of control, the T/C (dose: 54.0 mg/kg/injection, schedule: Q01DX001 (ip), vehicle: acetone) was 121 % of control and the T/C (dose: 54.0 mg/kg/injection, schedule: Q08DX002 (ip), vehicle: acetone) was 113 % of control. For the same molecule, the T/C (dose: 60.0 mg/kg/injection, schedule: Q01DX Z (ip), vehicle: methylcellulose (MC)) was 86 % of control, the T/C (dose: 66.0 mg/kg/injection, schedule: Q01DX009 (ip), vehicle: acetone) was 168 % of control and the T/C (dose: 66.0 mg/kg/injection, schedule: Q04DX003 (ip), vehicle: saline) was 117 % of control. For the same molecule, the T/C (dose: 75.0 mg/kg/injection, schedule: Q01DX009 (ip), vehicle: saline) was 175 % of control, the T/C (dose: 75.0 mg/kg/injection, schedule: Q04DX003 (ip), vehicle: saline sonified) was 119 % of control and the T/C (dose: 81.0 mg/kg/injection, schedule: Q01DX001 (ip), vehicle: acetone) was 118 % of control. The T/C (dose: 81.0 mg/kg/injection, schedule: Q04DX003 (ip), vehicle: acetone) was 154 % of control, the T/C (dose: 81.0 mg/kg/injection, schedule: Q08DX002 (ip), vehicle: acetone) was 123 % of control and the T/C (dose: 100.0 mg/kg/injection, schedule: Q01DX001 (ip), vehicle: saline) was 118 % of control. For the same molecule, the T/C (dose: 100.0 mg/kg/injection, schedule: Q01DX009 (ip), vehicle: acetone) was 224 % of control, the T/C (dose: 100.0 mg/kg/injection, schedule: Q04DX003 (ip), vehicle: acetone) was 161 % of control and the T/C (dose: 150.0 mg/kg/injection, schedule: Q04DX003 (ip), vehicle: saline) was 101 % of control. For the same molecule, the T/C (dose: 200.0 mg/kg/injection, schedule: Q01DX001 (ip), vehicle: saline) was 121 % of control.
With O=C(OC1OCC(OCc2ccccc2)C(OCc2ccccc2)C1OCc1ccccc1)c1ccc([N+](=O)[O-])cc1 (stereo unspecified) the T/C [1] was 88 % of control, the T/C [2] was 90 % of control and the T/C [3] was 90 % of control.
For CS(=O)(=O)OCCC#N, the T/C (dose: 50.0 mg/kg/injection, schedule: Q01DX009 (ip), vehicle: saline) was 103 % of control, the T/C [4] was 101 % of control and the T/C (dose: 100.0 mg/kg/injection, schedule: Q04DX003 (ip), vehicle: alcohol) was 102 % of control. The T/C (dose: 200.0 mg/kg/injection, schedule: Q04DX003 (ip), vehicle: alcohol) was 93 % of control.
COc1ccc(/C=N/NC(=O)CNC(=O)c2ccc(Cl)c(Cl)c2)cc1OC was tested, and the T/C (dose: 50.0 mg/kg/injection, schedule: Q01DX009 (ip), vehicle: saline with Tween-80) was 91 % of control, the T/C (dose: 100.0 mg/kg/injection, schedule: Q01DX009 (ip), vehicle: saline with Tween-80) was 91 % of control and the T/C (dose: 200.0 mg/kg/injection, schedule: Q01DX009 (ip), vehicle: saline with Tween-80) was 102 % of control.
With c1ccc(P(CCP(c2ccccc2)c2ccccc2)CCP(c2ccccc2)c2ccccc2)cc1 the T/C [5] was 91 % of control, the T/C [6] was 96 % of control and the T/C [7] was 96 % of control.
For CS(=O)(=O)OCC1CCCCO1 (stereo unspecified), the T/C [8] was 91 % of control, the T/C [5] was 101 % of control and the T/C [9] was 102 % of control. For the same molecule, the T/C [6] was 102 % of control, the T/C (dose: 400.0 mg/kg/injection, schedule: Q01DX009 (ip), vehicle: Klucel (hydroxypropylcellulose) (HPC)) was 106 % of control and the T/C [7] was 111 % of control.
For CC(=O)Nc1cc2c(cc1Br)-c1ccccc1C2O (stereo unspecified), the T/C (dose: 100.0 mg/kg/injection, schedule: Q01DX001 (ip), vehicle: carboxymethylcellulose (CMC)) was 98 % of control, the T/C (dose: 110.0 mg/kg/injection, schedule: Q01DX Z (ip), vehicle: other) was 98 % of control and the T/C (dose: 166.0 mg/kg/injection, schedule: Q01DX Z (ip), vehicle: other) was 101 % of control. The T/C (dose: 200.0 mg/kg/injection, schedule: Q01DX001 (ip), vehicle: carboxymethylcellulose (CMC)) was 97 % of control, the T/C (dose: 250.0 mg/kg/injection, schedule: Q01DX Z (ip), vehicle: other) was 98 % of control and the T/C (dose: 296.0 mg/kg/injection, schedule: Q01DX Z (ip), vehicle: saline) was 103 % of control. The T/C (dose: 444.0 mg/kg/injection, schedule: Q01DX Z (ip), vehicle: saline) was 105 % of control, the T/C (dose: 560.0 mg/kg/injection, schedule: Q01DX Z (ip), vehicle: other) was 103 % of control and the T/C (dose: 666.0 mg/kg/injection, schedule: Q01DX Z (ip), vehicle: saline) was 106 % of control.
C=CCSc1nccc(=O)[nH]1 was tested, and the T/C [8] was 110 % of control and the T/C [9] was 96 % of control.
In the case of C=CCN1C(=O)C=CC1=O, the T/C (dose: 3.0 mg/kg/injection, schedule: Q04DX002 (ip), vehicle: Klucel (hydroxypropylcellulose) (HPC)) is reported as 108 % of control and the T/C (dose: 6.0 mg/kg/injection, schedule: Q04DX002 (ip), vehicle: Klucel (hydroxypropylcellulose) (HPC)) is reported as 93 % of control.
In the case of O=C(Nc1ccccc1)OC/C=C\c1ccccc1, the T/C (dose: 200.0 mg/kg/injection, schedule: Q04DX002 (ip), vehicle: Klucel (hydroxypropylcellulose) (HPC)) is reported as 90 % of control and the T/C (dose: 400.0 mg/kg/injection, schedule: Q04DX002 (ip), vehicle: Klucel (hydroxypropylcellulose) (HPC)) is reported as 93 % of control.
For COc1ccccc1C(C#N)N1CCCN(C(C#N)c2ccccc2OC)C1c1cc(Cl)cc(Cl)c1O (stereo unspecified), the T/C [4] was 103 % of control, the T/C (dose: 100.0 mg/kg/injection, schedule: Q04DX003 (ip), vehicle: saline) was 112 % of control and the T/C (dose: 200.0 mg/kg/injection, schedule: Q01DX009 (ip), vehicle: saline) was 88 % of control. The T/C (dose: 200.0 mg/kg/injection, schedule: Q04DX003 (ip), vehicle: saline) was 97 % of control, the T/C (dose: 400.0 mg/kg/injection, schedule: Q01DX009 (ip), vehicle: saline) was 90 % of control and the T/C (dose: 400.0 mg/kg/injection, schedule: Q04DX003 (ip), vehicle: saline) was 97 % of control.
With CC(=O)n1c(O)c(N=Nc2ccccc2[N+](=O)[O-])c2ccccc21 the T/C [1] was 92 % of control, the T/C [2] was 93 % of control and the T/C [3] was 98 % of control.
